Three compounds from ChEMBL document CHEMBL3596185, “Combining Mass Spectrometric Metabolic Profiling with Genomic Analysis: A Powerful Approach for Discovering Natural Products from Cyanobacteria” (J Nat Prod, 2015) can be followed below.

As a reminder, the Ki is a measure of affinity in units of concentration, obtained from inhibition or displacement.

Each structure is given as a SMILES string.

One experiment deals with Cannabinoid receptor 2 (Homo sapiens, UniProt P34972). The experiment is described as follows: Displacement of [3H]-CP55940 from human recombinant CB2 receptor expressed in HEK293 cells after 90 mins by scintillation counting analysis. Type of experiment: cell-based. (Loss of bound radioactivity is the signal in a displacement assay; it reports binding, not function.)
Sequence of Cannabinoid receptor 2 (P34972 whole entry): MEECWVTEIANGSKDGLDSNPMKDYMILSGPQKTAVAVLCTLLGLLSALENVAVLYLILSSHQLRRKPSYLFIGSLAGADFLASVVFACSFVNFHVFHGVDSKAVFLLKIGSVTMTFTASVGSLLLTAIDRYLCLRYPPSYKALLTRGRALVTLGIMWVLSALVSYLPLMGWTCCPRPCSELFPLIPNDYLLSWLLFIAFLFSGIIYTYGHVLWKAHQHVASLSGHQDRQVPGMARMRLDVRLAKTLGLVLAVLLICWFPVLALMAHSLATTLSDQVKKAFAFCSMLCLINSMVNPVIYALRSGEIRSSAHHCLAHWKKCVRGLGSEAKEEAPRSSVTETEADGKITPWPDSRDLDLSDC
A further experiment is filed under the species Homo sapiens. The experiment is described as follows: Selectivity ratio of Ki for human recombinant CB2 receptor to Ki for human recombinant CB1 receptor.
The target of another experiment is Cannabinoid receptor 1 (Homo sapiens, UniProt P21554). The experiment is described as follows: Displacement of [3H]-CP55940 from human recombinant CB1 receptor expressed in HEK293 cells after 90 mins by scintillation counting analysis. Type of experiment: cell-based.
Sequence of Cannabinoid receptor 1 (P21554 whole entry): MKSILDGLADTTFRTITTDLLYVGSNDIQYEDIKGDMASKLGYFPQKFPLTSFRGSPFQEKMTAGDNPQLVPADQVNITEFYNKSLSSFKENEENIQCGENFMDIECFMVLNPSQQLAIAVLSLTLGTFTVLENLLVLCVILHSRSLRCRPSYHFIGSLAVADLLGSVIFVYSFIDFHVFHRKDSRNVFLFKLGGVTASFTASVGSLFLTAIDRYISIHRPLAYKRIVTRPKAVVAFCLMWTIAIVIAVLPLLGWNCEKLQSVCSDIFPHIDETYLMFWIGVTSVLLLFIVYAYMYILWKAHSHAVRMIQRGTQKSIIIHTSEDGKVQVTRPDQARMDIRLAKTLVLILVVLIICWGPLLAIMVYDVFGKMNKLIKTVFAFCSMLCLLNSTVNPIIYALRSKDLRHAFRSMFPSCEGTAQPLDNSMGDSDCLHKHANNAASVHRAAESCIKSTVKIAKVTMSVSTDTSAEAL

`COC[C@@H](COC(C)=O)N(C)C(=O)CC/C=C/CCCCC(Cl)CCCCCCCl` (some centres not stated): the Ki at Cannabinoid receptor 2 came to 1030 nM; at Cannabinoid receptor 1 it was 590 nM. In addition, in the experiment listed under Homo sapiens, the Ratio Ki turned out to be 2.

`COC[C@@H](COC(C)=O)N(C)C(=O)CC/C=C/CCCCC(Cl)CCCCCC(Cl)Cl` (some centres not stated): the Ki at Cannabinoid receptor 2 came to 860 nM; at Cannabinoid receptor 1, 410 nM. In addition, in the experiment filed under Homo sapiens, the Ratio Ki stood at 2.

Consider `C=CCCC/C=C/C=C(\C)CCCC/C=C/CC/C=C\C(=O)NC(CO)CO`, for which the Ki on Cannabinoid receptor 1 is 470 nM.
